Data from patent US20140303116A1, “CARNOSINE HYALURONIC ACID MIXTURES AND THEIR USE” (priority 2010, published 2014).

Assays:
skin fibroblasts = assay: scratch assay, migration of skin fibroblasts; type: cell-based; conditions: 48 hours of treatment after scratching; doses of between 0.2 and 0.8%; mitomycin C pre-treated cells, DMEM with 10% FCS
Protocol: The solutions obtained from Examples 2 and 3 were used to prepare dilute […], and these solutions, whose pH initially changed from 3 to 1.5, were neutralized by the addition of NaOH.
The effect of the above solutions on the migration of skin fibroblasts was tested in vitro by means of a scratch assay. In this test, cells mimic cell migration during an in vivo tissue repair.
The method is based on scratch-wounding a confluent monolayer of cells so that the cells capable of migration are stimulated to cover the artificial gap in an attempt to re-establish new cell-to-cell contacts. […]
In this assay, the fibroblasts were scratch-wounded and then treated with the test substances at different concentrations. At 48 hours after treatment, cells were photographed and stained with crystal violet, and the migrated cells were counted under an optical microscope. […]
Cells were cultivated in DMEM with 10% FCS and treated with the dilute solutions of L-carnosine hyaluronate as described above for 48 hours after scratching. […] Cells were counted after staining with crystal violet.
Cells were cultivated in DMEM with 10% FCS and treated with the dilute solutions of D-carnosine hyaluronate as described above for 48 hours after scratching. […] Cells were counted after staining with crystal violet.

collagen III = collagen III expression in fibroblasts by Western blotting; type: cell-based; conditions: fibroblasts exposed to 1.0 and 1.5% for 48 hours, beta-actin internal control
Protocol: The effect of solutions diluted to 1% and 1.5% and neutralized according to Example 4 on the production of collagen by fibroblasts treated with these solutions was verified.
The Western blotting technique was used to verify any production of collagen by the fibroblasts treated with L- and D-carnosine hyaluronate for 48 hours.
Fibroblast cultures were lysed with RIPA buffer at pH 7.4. Then, the samples were run onto a 10% SDS-polyacrylamide gel under reducing conditions. When the run has been completed, the proteins were transferred onto nitrocellulose membranes, incubated with anti-collagen III antibodies and then with the secondary antibody. […] The beta-actin expression was used as an internal control.

| Substance | migration of skin fibroblasts (migrated cell count) (skin fibroblasts) | collagen III synthesis vs control cells treated with saline (collagen III) |
| --- | --- | --- |
| D-carnosine hyaluronate | statistically significantly migrate | synthesize more collagen III than control cells |
| L-carnosine hyaluronate | statistically significantly migrate | synthesize more collagen III than control cells |
